Key:
Assay type in all cases: in vivo
[1] = test system: kochia (Kochia scoparia); test: Test A postemergence, kochia; conditions: visual injury, 0 to 100 scale (0 no effect, 100 complete control), approximately 10 days
Procedure, shortened: (§1)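 Greenhouse pot test in loam/sand soil. Pre: directed soil spray after seeding. Post: 1–2-leaf plants, 2–10 cm. Formulation: non-phytotoxic solvent + surfactant. Visual rating vs untreated controls at ~10 d, 0 (no effect) to 100 (complete control).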

[2] = test system: ragweed (common ragweed, Ambrosia elatior); test: Test A preemergence, ragweed; conditions: 0 to 100 scale (0 no effect, 100 complete control)
Procedure, shortened: as §1

[3] = test system: barnyardgrass (Echinochloa crus-galli); test: Test A postemergence, barnyardgrass; conditions: visual injury, 0 to 100 scale (0 no effect, 100 complete control), approximately 10 days
Procedure, shortened: as §1

[4] = test system: pigweed (Amaranthus retroflexus); test: Test A preemergence, pigweed; conditions: 0 to 100 scale (0 no effect, 100 complete control)
Procedure, shortened: as §1

[5] = test system: corn (Zea mays); test: Test A postemergence, corn; conditions: visual injury, 0 to 100 scale (0 no effect, 100 complete control), approximately 10 days
Procedure, shortened: as §1

[6] = test system: foxtail, giant (Setaria faberii); test: Test A postemergence, giant foxtail; conditions: visual injury, 0 to 100 scale (0 no effect, 100 complete control), approximately 10 days
Procedure, shortened: as §1

[7] = test system: ryegrass, Italian (Lolium multiflorum); test: Test A preemergence, Italian ryegrass; conditions: 0 to 100 scale (0 no effect, 100 complete control)
Procedure, shortened: as §1

[8] = test system: foxtail, giant (Setaria faberii); test: Test A preemergence, giant foxtail; conditions: 0 to 100 scale (0 no effect, 100 complete control)
Procedure, shortened: as §1

[9] = test system: pigweed (Amaranthus retroflexus); test: Test A postemergence, pigweed; conditions: visual injury, 0 to 100 scale (0 no effect, 100 complete control), approximately 10 days
Procedure, shortened: as §1

[10] = test system: ducksalad (Heteranthera limosa); test: Test B flooded paddy test, ducksalad; conditions: 250 g ai/ha, applied to paddy water, visual rating after 13 to 15 days, scale 0 (no effect) to 100 (complete control)
Procedure, shortened: (§2)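 Visual injury ratings against untreated controls, taken 13 to 15 days after compound was added to paddy water standing 3 cm above the soil.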

[11] = test system: ragweed (common ragweed, Ambrosia elatior); test: Test A postemergence, ragweed; conditions: visual injury, 0 to 100 scale (0 no effect, 100 complete control), approximately 10 days
Procedure, shortened: as §1

[12] = test system: sedge, umbrella (small-flower umbrella sedge, Cyperus difformis); test: Test B flooded paddy test, umbrella sedge; conditions: 250 g ai/ha, applied to paddy water, visual rating after 13 to 15 days, scale 0 (no effect) to 100 (complete control)
Procedure, shortened: as §2

[13] = test system: ryegrass, Italian (Lolium multiflorum); test: Test A postemergence, Italian ryegrass; conditions: visual injury, 0 to 100 scale (0 no effect, 100 complete control), approximately 10 days
Procedure, shortened: as §1

[14] = test system: rice (Oryza sativa); test: Test B flooded paddy test, rice; conditions: 250 g ai/ha, applied to paddy water, visual rating after 13 to 15 days, scale 0 (no effect) to 100 (complete control)
Procedure, shortened: as §2

[15] = test system: blackgrass (Alopecurus myosuroides); test: Test A postemergence, blackgrass; conditions: visual injury, 0 to 100 scale (0 no effect, 100 complete control), approximately 10 days
Procedure, shortened: as §1

[16] = test system: kochia (Kochia scoparia); test: Test A preemergence, kochia; conditions: 0 to 100 scale (0 no effect, 100 complete control)
Procedure, shortened: as §1

[17] = test system: galium (catchweed bedstraw, Galium aparine); test: Test A postemergence, galium; conditions: visual injury, 0 to 100 scale (0 no effect, 100 complete control), approximately 10 days
Procedure, shortened: as §1

[18] = test system: wheat (Triticum aestivum); test: Test A postemergence, wheat; conditions: visual injury, 0 to 100 scale (0 no effect, 100 complete control), approximately 10 days
Procedure, shortened: as §1

[19] = test system: barnyardgrass (Echinochloa crus-galli); test: Test A preemergence, barnyardgrass; conditions: 0 to 100 scale (0 no effect, 100 complete control)
Procedure, shortened: as §1

[20] = test system: barnyardgrass (Echinochloa crus-galli); test: Test B flooded paddy test, barnyardgrass; conditions: 250 g ai/ha, applied to paddy water, visual rating after 13 to 15 days, scale 0 (no effect) to 100 (complete control)
Procedure, shortened: as §2

SMILES	Plant response rating, Kochia ([1]; 125 g ai/ha)	Plant response rating, Kochia ([1]; 500 g ai/ha)	Plant response rating, Ragweed ([2]; 125 g ai/ha)	Plant response rating, Ragweed ([2]; 500 g ai/ha)	Plant response rating, Barnyardgrass ([3]; 125 g ai/ha)	Plant response rating, Barnyardgrass ([3]; 500 g ai/ha)	Plant response rating, Pigweed ([4]; 125 g ai/ha)	Plant response rating, Pigweed ([4]; 500 g ai/ha)	Plant response rating, Corn ([5]; 125 g ai/ha)	Plant response rating, Corn ([5]; 500 g ai/ha)	Plant response rating, Foxtail, Giant ([6]; 125 g ai/ha)	Plant response rating, Foxtail, Giant ([6]; 500 g ai/ha)	Plant response rating, Ryegrass, Italian ([7]; 125 g ai/ha)	Plant response rating, Ryegrass, Italian ([7]; 500 g ai/ha)	Plant response rating, Foxtail, Giant ([8]; 125 g ai/ha)	Plant response rating, Foxtail, Giant ([8]; 500 g ai/ha)	Plant response rating, Pigweed ([9]; 125 g ai/ha)	Plant response rating, Pigweed ([9]; 500 g ai/ha)	Plant response rating, Ducksalad (Flood) [10]	Plant response rating, Ragweed ([11]; 125 g ai/ha)	further results
O=C1NCC(c2cccc(OCC3OCCO3)c2)C1C(=O)Nc1ccccc1F (centres unmarked) [Compound 8]	0	0	0	0	0	70	0	0	0	20	0	70	0	0	80	90	0	0	35	0	Plant response rating, Ragweed ([11]; 500 g ai/ha): 10; Plant response rating, Sedge, Umbrella (Flood) [12]: 0; Plant response rating, Ryegrass, Italian ([13]; 125 g ai/ha): 0; Plant response rating, Ryegrass, Italian ([13]; 500 g ai/ha): 0; Plant response rating, Rice (Flood) [14]: 0; Plant response rating, Blackgrass ([15]; 125 g ai/ha): 0; Plant response rating, Blackgrass ([15]; 500 g ai/ha): 20; Plant response rating, Kochia ([16]; 125 g ai/ha): 0; Plant response rating, Kochia ([16]; 500 g ai/ha): 0; Plant response rating, Galium ([17]; 125 g ai/ha): 0; Plant response rating, Galium ([17]; 500 g ai/ha): 0; Plant response rating, Wheat ([18]; 125 g ai/ha): 0; Plant response rating, Wheat ([18]; 500 g ai/ha): 0; Plant response rating, Barnyardgrass ([19]; 125 g ai/ha): 50; Plant response rating, Barnyardgrass ([19]; 500 g ai/ha): 80; Plant response rating, Barnyardgrass (Flood) [20]: 0
O=C1NCC(c2cccc(Oc3ccc(F)cn3)c2)C1C(=O)Nc1ccccc1F (single isomer, unassigned) [Compound 49]	0	0	0	40	80	90	0	20	30	40	70	90	40	70	90	90	0	20	100	0	Plant response rating, Ragweed ([11]; 500 g ai/ha): 40; Plant response rating, Sedge, Umbrella (Flood) [12]: 0; Plant response rating, Ryegrass, Italian ([13]; 125 g ai/ha): 0; Plant response rating, Ryegrass, Italian ([13]; 500 g ai/ha): 50; Plant response rating, Rice (Flood) [14]: 0; Plant response rating, Blackgrass ([15]; 125 g ai/ha): 0; Plant response rating, Blackgrass ([15]; 500 g ai/ha): 40; Plant response rating, Kochia ([16]; 125 g ai/ha): 20; Plant response rating, Kochia ([16]; 500 g ai/ha): 70; Plant response rating, Galium ([17]; 125 g ai/ha): 20; Plant response rating, Galium ([17]; 500 g ai/ha): 70; Plant response rating, Wheat ([18]; 125 g ai/ha): 0; Plant response rating, Wheat ([18]; 500 g ai/ha): 40; Plant response rating, Barnyardgrass ([19]; 125 g ai/ha): 90; Plant response rating, Barnyardgrass ([19]; 500 g ai/ha): 90; Plant response rating, Barnyardgrass (Flood) [20]: 0
O=C1NCC(c2ccccc2Cn2ccc(C(F)(F)F)n2)C1C(=O)Nc1cccc(F)c1F (centres unmarked) [Compound 57]	0	20	0	0	0	60	0	0	30	30	40	70	0	0	60	90	0	20	0	0	Plant response rating, Ragweed ([11]; 500 g ai/ha): 30; Plant response rating, Sedge, Umbrella (Flood) [12]: 0; Plant response rating, Ryegrass, Italian ([13]; 125 g ai/ha): 0; Plant response rating, Ryegrass, Italian ([13]; 500 g ai/ha): 0; Plant response rating, Rice (Flood) [14]: 0; Plant response rating, Blackgrass ([15]; 125 g ai/ha): 0; Plant response rating, Blackgrass ([15]; 500 g ai/ha): 30; Plant response rating, Kochia ([16]; 500 g ai/ha): 0; Plant response rating, Galium ([17]; 125 g ai/ha): 0; Plant response rating, Galium ([17]; 500 g ai/ha): 20; Plant response rating, Wheat ([18]; 125 g ai/ha): 0; Plant response rating, Wheat ([18]; 500 g ai/ha): 0; Plant response rating, Barnyardgrass ([19]; 125 g ai/ha): 40; Plant response rating, Barnyardgrass ([19]; 500 g ai/ha): 90; Plant response rating, Barnyardgrass (Flood) [20]: 0
O=C1NCC(c2cccc(OCC3OCCO3)c2)C1C(=O)Nc1ccccc1Cl (centres unmarked) [Compound 6]	0	0	0	20	0	70	60	50	0	20	0	70	0	0	70	90	0	0	0	0	Plant response rating, Ragweed ([11]; 500 g ai/ha): 0; Plant response rating, Sedge, Umbrella (Flood) [12]: 0; Plant response rating, Ryegrass, Italian ([13]; 125 g ai/ha): 0; Plant response rating, Ryegrass, Italian ([13]; 500 g ai/ha): 0; Plant response rating, Rice (Flood) [14]: 0; Plant response rating, Blackgrass ([15]; 125 g ai/ha): 0; Plant response rating, Blackgrass ([15]; 500 g ai/ha): 20; Plant response rating, Kochia ([16]; 125 g ai/ha): 0; Plant response rating, Kochia ([16]; 500 g ai/ha): 0; Plant response rating, Galium ([17]; 125 g ai/ha): 0; Plant response rating, Galium ([17]; 500 g ai/ha): 0; Plant response rating, Wheat ([18]; 125 g ai/ha): 0; Plant response rating, Wheat ([18]; 500 g ai/ha): 20; Plant response rating, Barnyardgrass ([19]; 125 g ai/ha): 20; Plant response rating, Barnyardgrass ([19]; 500 g ai/ha): 80; Plant response rating, Barnyardgrass (Flood) [20]: 0

Reference: patent US10405547B2, “Substituted cyclic amides as herbicides” (FMC Corporation, priority 2015, dated 2019)
